Experimental data reported in article PMC11562494 (BMC Chemistry, 2024).
≈ marks a conversion by molar mass, not a printed value.

How the values were obtained:
E. coli = test: Broth dilution MIC/MBC; format: cell-based, Escherichia coli; details: for MBC / MIC: Escherichia coli; for MBC: read-out: MBC E. coli; for MIC: read-out: MIC E. coli
E. cloacae = test: Broth dilution MIC/MBC; format: cell-based, Enterobacter cloacae; details: for MBC / MIC: Enterobacter cloacae; for MBC: read-out: MBC E. cloacae; for MIC: read-out: MIC E. cloacae
S. faecalis = test: Broth dilution MIC/MBC; format: cell-based, Streptococcus faecalis; details: for MBC / MIC: Enterococcus faecalis; for MBC: read-out: MBC S. faecalis; for MIC: read-out: MIC S. faecalis
B. pumilus = test: Broth dilution MIC/MBC; format: cell-based, Bacillus pumilus; details: for MBC / MIC: Bacillus pumilus; for MBC: read-out: MBC B. pumilus; for MIC: read-out: MIC B. pumilus
S. cerevisiae = test: Broth dilution MIC/MFC; format: cell-based, Saccharomyces cerevisiae; details: for MFC / MIC: Saccharomyces cerevisiae; for MFC: read-out: MFC S. cerevisiae; for MIC: read-out: MIC S. cerevisiae
C. albicans = test: Broth dilution MIC/MFC; format: cell-based, Candida albicans; details: for MFC / MIC: Candida albicans; for MFC: read-out: MFC C. albicans; for MIC: read-out: MIC C. albicans, broth dilution

| Compound | MBC/ MIC ratio E. coli (E. coli) | MIC (E. coli) | MBC/ MIC ratio E. cloacae (E. cloacae) | MIC (E. cloacae) | MBC/ MIC ratio S. faecalis (S. faecalis) | MIC (S. faecalis) | MBC/ MIC ratio B. pumilus (B. pumilus) | MIC (B. pumilus) | MFC/ MIC ratio S. cerevisiae (S. cerevisiae) | MIC (S. cerevisiae) | MFC/ MIC ratio C. albicans (C. albicans) | MIC (C. albicans) | MIC C. albicans (C. albicans; broth dilution) | MBC (E. coli) | MBC (E. cloacae) | MBC (S. faecalis) | MBC (B. pumilus) | MFC (S. cerevisiae) | MFC (C. albicans) |
| --- | --- | --- | --- | --- | --- | --- | --- | --- | --- | --- | --- | --- | --- | --- | --- | --- | --- | --- | --- |
| N#Cc1c(-c2ccc(Cl)cc2Cl)c(C(N)=O)c(N)n(N)c1=O [Compound 3b, 1,2-diamino-5-cyano-4-(2,4-dichlorophenyl)-6-oxo-1,6-dihydropyridine-3-carboxamide] | 4 | 7.81 µg/mL (≈ 23.1 µM) | 4 | 31.3 µg/mL (≈ 92.6 µM) | 2 | 31.3 µg/mL (≈ 92.6 µM) | 2 | 15.6 µg/mL (≈ 46.1 µM) | 2 | 125 µg/mL (≈ 370 µM) | 2 | 62.5 µg/mL (≈ 185 µM) |  | 31.3 µg/mL (≈ 92.6 µM) | 125 µg/mL (≈ 370 µM) | 62.5 µg/mL (≈ 185 µM) | 31.3 µg/mL (≈ 92.6 µM) | 250 µg/mL (≈ 739 µM) | 125 µg/mL (≈ 370 µM) |
| Cc1c(C(N)=O)c(N)n(N)c(=O)c1C#N [Compound 3a, 1,2-diamino-5-cyano-4-methyl-6-oxo-1,6-dihydropyridine-3-carboxamide] | 4 | 15.6 µg/mL (≈ 75.3 µM) | 8 | 3.91 µg/mL (≈ 18.9 µM) | 4 | 7.81 µg/mL (≈ 37.7 µM) | 4 | 31.3 µg/mL (≈ 151 µM) | 4 | 31.3 µg/mL (≈ 151 µM) | 4 |  |  | 62.5 µg/mL (≈ 302 µM) | 31.3 µg/mL (≈ 151 µM) | 31.3 µg/mL (≈ 151 µM) | 125 µg/mL (≈ 603 µM) | 125 µg/mL (≈ 603 µM) | 500 µg/mL (≈ 2410 µM) |
| CC(=O)N1CCN(c2ccc(OCC3COC(Cn4ccnc4)(c4ccc(Cl)cc4Cl)O3)cc2)CC1 (stereo not drawn) [Keto., Ketoconazole, reference compound] |  |  |  |  |  |  |  |  |  | 1.95 µg/mL (≈ 3.67 µM) |  | 1.95 µg/mL (≈ 3.67 µM) |  |  |  |  |  | 15.6 µg/mL (≈ 29.4 µM) | 31.3 µg/mL (≈ 58.9 µM) |
| CC1(C)S[C@@H]2[C@H](NC(=O)Cc3ccccc3)C(=O)N2[C@H]1C(=O)O [Pen. G, Penicillin G, reference compound] |  |  |  |  | 2 | 31.5 µg/mL (≈ 94.2 µM) | 2 | 62.5 µg/mL (≈ 187 µM) |  |  |  |  |  |  |  | 62.5 µg/mL (≈ 187 µM) | 125 µg/mL (≈ 374 µM) |  |  |
| CN(C)c1ccc(-c2c(C(N)=O)c(N)n(N)c(=O)c2C#N)cc1 [Compound 3c, 1,2-diamino-5-cyano-4-(4-(dimethylamino)phenyl)-6-oxo-1,6-dihydropyridine-3-carboxamide] | 4 | 15.6 µg/mL (≈ 49.9 µM) | 2 | 62.5 µg/mL (≈ 200 µM) | 2 | 62.5 µg/mL (≈ 200 µM) | 4 | 15.6 µg/mL (≈ 49.9 µM) | 4 | 31.3 µg/mL (≈ 100 µM) | 2 | 31.3 µg/mL (≈ 100 µM) | 62.5 µg/mL (≈ 200 µM) | 62.5 µg/mL (≈ 200 µM) | 125 µg/mL (≈ 400 µM) | 125 µg/mL (≈ 400 µM) | 62.5 µg/mL (≈ 200 µM) | 125 µg/mL (≈ 400 µM) | 125 µg/mL (≈ 400 µM) |

Continued, in another order:

| MBC/ MIC ratio E. coli (E. coli) | MIC (E. coli) | MBC/ MIC ratio E. cloacae (E. cloacae) | MIC (E. cloacae) | MBC/ MIC ratio S. faecalis (S. faecalis) | MIC (S. faecalis) | MBC/ MIC ratio B. pumilus (B. pumilus) | MIC (B. pumilus) | MFC/ MIC ratio S. cerevisiae (S. cerevisiae) | MIC (S. cerevisiae) | MFC/ MIC ratio C. albicans (C. albicans) | MIC (C. albicans) | MIC C. albicans (C. albicans; broth dilution) | Compound | MBC (E. coli) | MBC (E. cloacae) | MBC (S. faecalis) | MBC (B. pumilus) | MFC (S. cerevisiae) | MFC (C. albicans) |
| --- | --- | --- | --- | --- | --- | --- | --- | --- | --- | --- | --- | --- | --- | --- | --- | --- | --- | --- | --- |
|  | 7.81 µg/mL (≈ 22 µM) |  | 31.3 µg/mL (≈ 88.4 µM) |  | 31.3 µg/mL (≈ 88.4 µM) | 2 | 31.3 µg/mL (≈ 88.4 µM) | 4 | 125 µg/mL (≈ 353 µM) |  | 31.3 µg/mL (≈ 88.4 µM) |  | N#Cc1c(-c2ccc(Cl)cc2Cl)c(C(N)=S)c(N)n(N)c1=O [Compound 4b, 1,2-diamino-5-cyano-4-(2,4-dichlorophenyl)-6-oxo-1,6-dihydropyridine-3-carbothioamide] | 62.5 µg/mL (≈ 176 µM) | 125 µg/mL (≈ 353 µM) | 125 µg/mL (≈ 353 µM) | 62.5 µg/mL (≈ 176 µM) | 500 µg/mL (≈ 1410 µM) | 62.5 µg/mL (≈ 176 µM) |
| 4 | 31.3 µg/mL (≈ 95.3 µM) | 4 | 62.5 µg/mL (≈ 190 µM) | 4 | 7.81 µg/mL (≈ 23.8 µM) | 2 | 62.5 µg/mL (≈ 190 µM) | 2 | 62.5 µg/mL (≈ 190 µM) | 4 | 15.6 µg/mL (≈ 47.5 µM) |  | CN(C)c1ccc(-c2c(C(N)=S)c(N)n(N)c(=O)c2C#N)cc1 [Compound 4c, 1,2-diamino-5-cyano-4-(4-(dimethylamino)phenyl)-6-oxo-1,6-dihydropyridine-3-carbothioamide] | 125 µg/mL (≈ 381 µM) | 250 µg/mL (≈ 761 µM) | 31.3 µg/mL (≈ 95.3 µM) | 125 µg/mL (≈ 381 µM) | 125 µg/mL (≈ 381 µM) | 62.5 µg/mL (≈ 190 µM) |
